Patent US12016833B2 (ACEBiomed, Inc., priority 2020, dated 2024)
Where two headings read alike, the source gives them in different places.

What was measured:
obesity-induced rats [1] = assay: Fat accumulated in liver tissue, oil red O staining; type: in vivo; conditions: HFD rats; FIG. 5
Excerpt: In addition, in order to examine a quantitative change of fat accumulated in the liver tissues of the rats, the fat was confirmed by staining using an oil red O method, and the results were shown in FIG. 5.

obesity-induced rats [2] = conditions: HFD rats
Description: (§1) The drugs were administered with a high fat diet for a total of 6 weeks, and administered by oral gavage 3 times a week.

obesity-induced rats [3] = assay: Anatomical test of liver cross-sections by H&E staining; type: in vivo; conditions: HFD rats; colchicine 100 μg/kg alone or with metformin 100 mg/kg; FIG. 4
Excerpt: For the anatomical test of the cross-sections of the livers of the rats, H&E staining was applied, and the results were shown in FIG. 4.

ACC [4] = conditions: rat AML12 liver cell line; drug treatment for 7 hours; FIG. 7
obesity-induced rats [5] = conditions: HFD rats; remark: listed apart in the source
Description: as §1

AMPK [6] = conditions: HFD rats; colchicine 100 μg/kg alone or with metformin 100 mg/kg; FIG. 6
Description: as §1

[7] = HFD rats; colchicine (10 μg/kg) alone or colchicine (10 μg/kg)/metformin (50 mg/kg), oral gavage 3 times a week, 6 weeks; FIG. 2
Description: as §1

obesity-induced rats [8] = conditions: HFD rats; remark: listed apart in the source
Description: as §1

ACC [9] = conditions: HFD rats; colchicine 100 μg/kg alone or with metformin 100 mg/kg; FIG. 6
Description: as §1

AMPK [10] = conditions: drug treatment for 7 hours; FIG. 7
[11] = colchicine 10 μg/kg alone, Table 3
[12] = colchicine 50 μg/kg alone, Table 3
[13] = colchicine 100 μg/kg alone, Table 3
[14] = colchicine 100 μg/kg alone, Table 4
[15] = colchicine 200 μg/kg alone, Table 3
[16] = colchicine 10 μg/kg alone, Table 1
[17] = colchicine 50 μg/kg alone, Table 1
[18] = colchicine 100 μg/kg alone, Table 1
[19] = colchicine 100 μg/kg alone, Table 2
[20] = colchicine 200 μg/kg alone, Table 1

## COc1cc2c(c(OC)c1OC)-c1ccc(OC)c(=O)cc1[C@@H](NC(C)=O)CC2 [Colchicine]
obesity-induced rats [1]
  fat accumulation in the liver tissues (oil red O): reduced
obesity-induced rats [2]; colchicine 10 μg/kg alone, Table 5
  Hydroxyproline: 345.28 ± 8.14 μg/g of liver
obesity-induced rats [2]; colchicine 50 μg/kg alone, Table 5
  Hydroxyproline: 326.46 ± 14.55 μg/g of liver
obesity-induced rats [2]; colchicine 100 μg/kg alone, Table 5
  Hydroxyproline: 308.13 ± 5.04 μg/g of liver
obesity-induced rats [2]; colchicine 100 μg/kg alone, Table 6
  Hydroxyproline: 316.68 ± 13.36 μg/g of liver
obesity-induced rats [3]
  steatosis in the liver tissues (H&E staining): reduced
ACC [4]
  activation of ACC: increased
obesity-induced rats [5]; [11]
  ALT: 1742.57 ± 102.71 U/L
  AST: 1766.90 ± 90.48 U/L
  Total protein: 5.07 ± 0.30 g/dL
obesity-induced rats [5]; [12]
  ALT: 1602.38 ± 61.31 U/L
  AST: 1759.49 ± 61.71 U/L
  Total protein: 5.21 ± 0.33 g/dL
obesity-induced rats [5]; [13]
  ALT: 1466.48 ± 49.34 U/L
  AST: 1614.70 ± 78.28 U/L
  Total protein: 5.24 ± 0.13 g/dL
obesity-induced rats [5]; [14]
  ALT: 1508.64 ± 102.38 U/L
  AST: 1574.22 ± 75.98 U/L
  Total protein: 5.13 ± 0.22 g/dL
obesity-induced rats [5]; [15]
  ALT: 1735.40 ± 86.49 U/L
  AST: 1833.70 ± 131.74 U/L
  Total protein: 5.09 ± 0.32 g/dL
AMPK [6]
  activation of AMPK in liver tissues: partially recovered
[7]
  change in weights of the whole rats: no significant change
obesity-induced rats [8]; FIG. 3
  Ballooning degeneration: reduced
  Portal inflammation: reduced
  macrovesicular steatosis: no effect
  microvesicular steatosis: reduced
obesity-induced rats [8]; [16]
  Ballooning degeneration: 2
  Fatty necrosis: 3
  Fibrosis: 3
  Portal inflammation: 2
  Total score: 10
obesity-induced rats [8]; [17]
  Ballooning degeneration: 2
  Fatty necrosis: 2
  Fibrosis: 2
  Portal inflammation: 2
  Total score: 8
obesity-induced rats [8]; [18]
  Ballooning degeneration: 1
  Fatty necrosis: 2
  Fibrosis: 1
  Portal inflammation: 1
  Total score: 5
obesity-induced rats [8]; [19]
  Ballooning degeneration: 1
  Fatty necrosis: 2
  Fibrosis: 1
  Portal inflammation: 2
  Total score: 6
obesity-induced rats [8]; [20]
  Ballooning degeneration: 2
  Fatty necrosis: 2
  Fibrosis: 1
  Portal inflammation: 2
  Total score: 7
ACC [9]
  activation of ACC in liver tissues: partially recovered
AMPK [10]
  activation of AMPK: increased
